Literature values in patent US20080260818A1, “Controlled Absorption of Statins in the Intestine” (DEXCEL PHARMA TECHNOLOGIES LTD., priority 2005, published 2008).

Experiments:
HMG-CoA reductase = target: T1, HMG-CoA reductase (Homo sapiens, UniProt P04035); settings: considering the beta-hydroxy acid form as the drug
T1 sequence (P04035 1-888): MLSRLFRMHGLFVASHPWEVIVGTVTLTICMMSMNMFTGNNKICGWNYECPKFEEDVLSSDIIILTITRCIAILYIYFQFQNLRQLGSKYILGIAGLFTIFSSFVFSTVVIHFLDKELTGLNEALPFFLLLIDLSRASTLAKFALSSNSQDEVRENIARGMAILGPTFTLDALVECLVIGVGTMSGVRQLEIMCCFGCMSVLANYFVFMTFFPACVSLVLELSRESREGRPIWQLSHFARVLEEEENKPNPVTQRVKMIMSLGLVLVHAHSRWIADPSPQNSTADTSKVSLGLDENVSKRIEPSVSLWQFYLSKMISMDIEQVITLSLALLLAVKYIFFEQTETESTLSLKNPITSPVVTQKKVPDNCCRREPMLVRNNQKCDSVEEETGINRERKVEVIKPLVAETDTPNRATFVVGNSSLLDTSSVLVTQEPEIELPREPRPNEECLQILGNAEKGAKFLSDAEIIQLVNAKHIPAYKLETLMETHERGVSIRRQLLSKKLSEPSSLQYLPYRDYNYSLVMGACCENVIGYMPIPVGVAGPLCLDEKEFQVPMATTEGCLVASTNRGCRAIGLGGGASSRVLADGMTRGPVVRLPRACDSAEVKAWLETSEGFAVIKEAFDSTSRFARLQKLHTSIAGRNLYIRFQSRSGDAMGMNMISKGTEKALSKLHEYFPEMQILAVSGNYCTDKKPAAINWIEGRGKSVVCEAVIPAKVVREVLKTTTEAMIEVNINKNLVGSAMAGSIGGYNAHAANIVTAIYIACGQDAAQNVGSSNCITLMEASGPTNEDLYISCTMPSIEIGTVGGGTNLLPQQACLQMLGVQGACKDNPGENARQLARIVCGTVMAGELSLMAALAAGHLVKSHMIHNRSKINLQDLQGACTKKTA

[1] = tested on: plasma proteins, primarily albumin; settings: Simvastatin and its active acid forms

SMILES | HMG-CoA reductase activity retained (HMG-CoA reductase) | bound to plasma proteins, primarily to albumin [1]
CCC(C)(C)C(=O)OC1CC(C)(O)C=C2C=CC(C)C(CCC3CC(O)CC(=O)O3)C21 (stereo not drawn) [6-beta-hydroxy simvastatin] | ~50% | –
CCC(C)(C)C(=O)OC1CC(CO)C=C2C=CC(C)C(CCC3CC(O)CC(=O)O3)C21 (stereo not drawn) [6-beta-hydroxymethyl] | approximately 40% | –
CCC(C)(C)C(=O)O[C@H]1C[C@@H](C)C=C2C=C[C@H](C)[C@H](CC[C@@H]3C[C@@H](O)CC(=O)O3)[C@H]21 [simvastatin] | – | more than 95%
